In PubChem BioAssay AID256 (DTP/NCI, 2004):
Inconclusive results and toxic doses are left out.

Tested on: CD2F1 mice, L1210 leukemia ip, survival T/C
Test: NCI In Vivo Anticancer Drug Screen. Data for tumor model L1210 Leukemia (intraperitoneal) in CD2F1 (CDF1) mice
Conditions: higher = longer survival
How it was run: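 Compound-dosed mice with transplantable tumor versus matched vehicle controls; endpoint ratio T/C reported.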

[1] = endpoint: mean survival time, dose: 50.0 mg/kg/injection, schedule: Q04DX002 (ip), vehicle: saline with Tween-80
[2] = endpoint: mean survival time, dose: 100.0 mg/kg/injection, schedule: Q04DX002 (ip), vehicle: saline with Tween-80
[3] = endpoint: mean survival time, dose: 200.0 mg/kg/injection, schedule: Q04DX002 (ip), vehicle: saline with Tween-80
[4] = endpoint: mean survival time, dose: 100.0 mg/kg/injection, schedule: Q01DX009 (ip), vehicle: saline with Tween-80
[5] = endpoint: mean survival time, dose: 100.0 mg/kg/injection, schedule: Q04DX003 (ip), vehicle: saline with Tween-80
[6] = endpoint: mean survival time, dose: 200.0 mg/kg/injection, schedule: Q01DX009 (ip), vehicle: saline with Tween-80
[7] = endpoint: mean survival time, dose: 200.0 mg/kg/injection, schedule: Q04DX003 (ip), vehicle: saline with Tween-80
[8] = endpoint: mean survival time, dose: 400.0 mg/kg/injection, schedule: Q04DX003 (ip), vehicle: saline with Tween-80

## c1ccc2c[n+]3ccccc3cc2c1
endpoint: mean survival time, dose: 12.5 mg/kg/injection, schedule: Q04DX003 (ip), vehicle: saline
  T/C: 97 % of control
endpoint: mean survival time, dose: 25.0 mg/kg/injection, schedule: Q04DX003 (ip), vehicle: saline
  T/C: 98 % of control

## Nc1nc2c(ncn2CCCc2ccccc2)c(=O)[nH]1
endpoint: mean survival time, dose: 100.0 mg/kg/injection, schedule: Q01DX001 (ip), vehicle: saline with Tween-80
  T/C: 94 % of control
endpoint: mean survival time, dose: 200.0 mg/kg/injection, schedule: Q01DX001 (ip), vehicle: saline with Tween-80
  T/C: 94 % of control

## O=C1C2C3CC4C5C3C1C5C1(OCCO1)C42 (stereo not given)
endpoint: mean survival time, dose: 25.0 mg/kg/injection, schedule: Q04DX002 (ip), vehicle: saline with Tween-80
  T/C: 107 % of control
[1]
  T/C: 107 % of control
[2]
  T/C: 100 % of control
[3]
  T/C: 107 % of control

## O=C(Nc1ccccc1)Oc1c(Cl)cc(Cl)c2ccccc12
[2]
  T/C: 88 % of control
[3]
  T/C: 88 % of control
endpoint: mean survival time, dose: 400.0 mg/kg/injection, schedule: Q04DX002 (ip), vehicle: saline with Tween-80
  T/C: 88 % of control

## Nc1cc(Cl)cc2c1-c1ccc(Cl)cc1C2Br (stereo not given)
endpoint: mean survival time, dose: 50.0 mg/kg/injection, schedule: Q01DX001 (ip), vehicle: carboxymethylcellulose (CMC)
  T/C: 102 % of control
endpoint: mean survival time, dose: 100.0 mg/kg/injection, schedule: Q01DX001 (ip), vehicle: carboxymethylcellulose (CMC)
  T/C: 108 % of control
endpoint: mean survival time, dose: 200.0 mg/kg/injection, schedule: Q01DX001 (ip), vehicle: carboxymethylcellulose (CMC)
  T/C: 108 % of control
endpoint: mean survival time, dose: 400.0 mg/kg/injection, schedule: Q01DX001 (ip), vehicle: carboxymethylcellulose (CMC)
  T/C: 108 % of control

## CSc1nc(NC2OCC(O)C(O)C2O)c(Br)c(=O)n1C (stereo not given)
endpoint: median survival time, dose: 12.5 mg/kg/injection, schedule: Q01DX005 (ip), vehicle: saline with Tween-80
  T/C: 98 % of control
endpoint: median survival time, dose: 25.0 mg/kg/injection, schedule: Q01DX005 (ip), vehicle: saline with Tween-80
  T/C: 100 % of control
endpoint: median survival time, dose: 50.0 mg/kg/injection, schedule: Q01DX005 (ip), vehicle: saline with Tween-80
  T/C: 101 % of control
endpoint: median survival time, dose: 100.0 mg/kg/injection, schedule: Q01DX005 (ip), vehicle: saline with Tween-80
  T/C: 102 % of control
endpoint: median survival time, dose: 200.0 mg/kg/injection, schedule: Q01DX005 (ip), vehicle: saline with Tween-80
  T/C: 98 % of control

## Cc1ccc(NC(=O)c2ccccc2)c(C)c1
[4]
  T/C: 90 % of control
[5]
  T/C: 92 % of control
[6]
  T/C: 86 % of control
[7]
  T/C: 92 % of control
[8]
  T/C: 92 % of control

## CCN1/C(=C/C(C)=C/c2sc3ccccc3[n+]2CC)Sc2ccccc21
endpoint: mean survival time, dose: 5.0 mg/kg/injection, schedule: Q01DX001 (ip), vehicle: other
  T/C: 96 % of control
endpoint: mean survival time, dose: 200.0 micrograms/kg/injection, schedule: Q04DX003 (ip), vehicle: Klucel (hydroxypropylcellulose) (HPC)
  T/C: 104 % of control
endpoint: mean survival time, dose: 400.0 micrograms/kg/injection, schedule: Q04DX003 (ip), vehicle: Klucel (hydroxypropylcellulose) (HPC)
  T/C: 104 % of control

## C(=Nc1ccccc1)c1ccc(C=Nc2ccccc2)cc1
[4]
  T/C: 106 % of control
endpoint: mean survival time, dose: 100.0 mg/kg/injection, schedule: Q04DX003 (ip), vehicle: saline sonified
  T/C: 97 % of control
[6]
  T/C: 94 % of control
endpoint: mean survival time, dose: 200.0 mg/kg/injection, schedule: Q04DX003 (ip), vehicle: saline sonified
  T/C: 102 % of control
endpoint: mean survival time, dose: 400.0 mg/kg/injection, schedule: Q04DX003 (ip), vehicle: saline sonified
  T/C: 97 % of control

## O=C1OC(c2ccccc2)c2ccccc21 (stereo not given)
[4]
  T/C: 95 % of control
[6]
  T/C: 100 % of control
endpoint: mean survival time, dose: 400.0 mg/kg/injection, schedule: Q01DX009 (ip), vehicle: saline with Tween-80
  T/C: 92 % of control

## CN(C)CCNCc1ccc2c(c1)OCO2
endpoint: mean survival time, dose: 25.0 mg/kg/injection, schedule: Q01DX001 (ip), vehicle: saline
  T/C: 102 % of control
endpoint: mean survival time, dose: 50.0 mg/kg/injection, schedule: Q01DX001 (ip), vehicle: saline
  T/C: 102 % of control
endpoint: mean survival time, dose: 100.0 mg/kg/injection, schedule: Q01DX001 (ip), vehicle: saline
  T/C: 102 % of control

## COc1c(O)cc2c(c1OC)-c1ccc(SC)c(=O)cc1C(NC(C)=O)CC2 (stereo not given)
endpoint: median survival time, dose: 0.06 mg/kg/injection, schedule: Q01DX009 (ip), vehicle: Klucel (hydroxypropylcellulose) (HPC)
  T/C: 110 % of control
endpoint: median survival time, dose: 0.12 mg/kg/injection, schedule: Q01DX009 (ip), vehicle: Klucel (hydroxypropylcellulose) (HPC)
  T/C: 110 % of control
endpoint: median survival time, dose: 0.25 mg/kg/injection, schedule: Q01DX009 (ip), vehicle: Klucel (hydroxypropylcellulose) (HPC)
  T/C: 110 % of control
endpoint: median survival time, dose: 0.31 mg/kg/injection, schedule: Q01DX009 (ip), vehicle: DMSO
  T/C: 113 % of control
endpoint: median survival time, dose: 0.31 mg/kg/injection, schedule: Q01DX009 (ip), vehicle: Klucel (hydroxypropylcellulose) (HPC)
  T/C: 118 % of control
endpoint: median survival time, dose: 0.5 mg/kg/injection, schedule: Q01DX009 (ip), vehicle: Klucel (hydroxypropylcellulose) (HPC)
  T/C: 121 % of control
endpoint: median survival time, dose: 0.63 mg/kg/injection, schedule: Q01DX009 (ip), vehicle: DMSO
  T/C: 124 % of control
endpoint: median survival time, dose: 1.0 mg/kg/injection, schedule: Q01DX009 (ip), vehicle: Klucel (hydroxypropylcellulose) (HPC)
  T/C: 105 % of control
endpoint: median survival time, dose: 2.5 mg/kg/injection, schedule: Q01DX009 (oral), vehicle: DMSO
  T/C: 108 % of control
endpoint: median survival time, dose: 5.0 mg/kg/injection, schedule: Q01DX005 (ip), vehicle: Klucel (hydroxypropylcellulose) (HPC)
  T/C: 164 % of control
endpoint: median survival time, dose: 5.0 mg/kg/injection, schedule: Q01DX009 (ip), vehicle: DMSO
  T/C: 172 % of control
endpoint: median survival time, dose: 5.0 mg/kg/injection, schedule: Q01DX009 (oral), vehicle: DMSO
  T/C: 107 % of control
endpoint: median survival time, dose: 10.0 mg/kg/injection, schedule: Q01DX009 (ip), vehicle: DMSO
  T/C: 165 % of control
endpoint: median survival time, dose: 10.0 mg/kg/injection, schedule: Q01DX009 (oral), vehicle: DMSO
  T/C: 116 % of control
endpoint: median survival time, dose: 20.0 mg/kg/injection, schedule: Q01DX005 (ip), vehicle: Klucel (hydroxypropylcellulose) (HPC)
  T/C: 158 % of control
endpoint: median survival time, dose: 20.0 mg/kg/injection, schedule: Q01DX009 (oral), vehicle: DMSO
  T/C: 109 % of control
endpoint: median survival time, dose: 40.0 mg/kg/injection, schedule: Q01DX009 (oral), vehicle: DMSO
  T/C: 107 % of control

## CC(C)C(O)(c1ccccc1)C(O)(c1ccccc1)C(C)C (stereo not given)
[1]
  T/C: 100 % of control
[2]
  T/C: 96 % of control
[3]
  T/C: 100 % of control

## CC1CCN(Cc2c(COc3ccc(Cl)cc3)n(C)c3ccccc23)CC1
[5]
  T/C: 87 % of control
[7]
  T/C: 93 % of control
[8]
  T/C: 94 % of control

## Cc1ccccc1-[n+]1nc(-c2ccccc2)nn1-c1ccccc1
endpoint: mean survival time, dose: 1.25 mg/kg/injection, schedule: Q01DX009 (ip), vehicle: saline sonified
  T/C: 104 % of control
endpoint: mean survival time, dose: 5.0 mg/kg/injection, schedule: Q04DX003 (ip), vehicle: saline with Tween-80
  T/C: 98 % of control

## Nc1ncc2ccccc2c1-c1ccc(NC(=O)CN(CCCl)CCCl)cc1
endpoint: mean survival time, dose: 25.0 mg/kg/injection, schedule: Q04DX003 (ip), vehicle: other
  T/C: 106 % of control
endpoint: mean survival time, dose: 50.0 mg/kg/injection, schedule: Q04DX003 (ip), vehicle: other
  T/C: 106 % of control
endpoint: mean survival time, dose: 100.0 mg/kg/injection, schedule: Q04DX003 (ip), vehicle: other
  T/C: 103 % of control
endpoint: mean survival time, dose: 200.0 mg/kg/injection, schedule: Q04DX003 (ip), vehicle: other
  T/C: 109 % of control
endpoint: mean survival time, dose: 400.0 mg/kg/injection, schedule: Q04DX003 (ip), vehicle: other
  T/C: 112 % of control

## COc1cc(C2c3cc4c(c(OC5OC6CO[C@@H](c7cccs7)OC6C(O)C5O)c3C[C@@H]3COC(=O)[C@@H]23)OCO4)cc(OC)c1O (stereo not given in full)
endpoint: median survival time, dose: 0.8 mg/kg/injection, schedule: Q01DX005 (ip), vehicle: saline with Tween-80
  T/C: 104 % of control
endpoint: median survival time, dose: 1.6 mg/kg/injection, schedule: Q01DX005 (ip), vehicle: saline with Tween-80
  T/C: 100 % of control
endpoint: median survival time, dose: 3.2 mg/kg/injection, schedule: Q01DX005 (ip), vehicle: saline with Tween-80
  T/C: 107 % of control
endpoint: median survival time, dose: 6.4 mg/kg/injection, schedule: Q01DX005 (ip), vehicle: saline with Tween-80
  T/C: 107 % of control

## CCOP1(=O)OCC(C(C)(C)C)CO1 (stereo not given)
endpoint: mean survival time, dose: 12.5 mg/kg/injection, schedule: Q04DX003 (ip), vehicle: Klucel (hydroxypropylcellulose) (HPC)
  T/C: 102 % of control
endpoint: mean survival time, dose: 25.0 mg/kg/injection, schedule: Q04DX003 (ip), vehicle: Klucel (hydroxypropylcellulose) (HPC)
  T/C: 102 % of control

## O=c1[nH]c2ncnc(N=Nc3ncnc4[nH]c(=O)[nH]c34)c2[nH]1
endpoint: mean survival time, dose: 12.5 mg/kg/injection, schedule: Q01DX005 (ip), vehicle: distilled water + Tween-80
  T/C: 98 % of control
endpoint: mean survival time, dose: 25.0 mg/kg/injection, schedule: Q01DX005 (ip), vehicle: distilled water + Tween-80
  T/C: 89 % of control
endpoint: mean survival time, dose: 50.0 mg/kg/injection, schedule: Q01DX005 (ip), vehicle: distilled water + Tween-80
  T/C: 91 % of control
endpoint: mean survival time, dose: 100.0 mg/kg/injection, schedule: Q01DX005 (ip), vehicle: distilled water + Tween-80
  T/C: 94 % of control
endpoint: mean survival time, dose: 200.0 mg/kg/injection, schedule: Q01DX005 (ip), vehicle: distilled water + Tween-80
  T/C: 96 % of control
